Assay results reported in patent US11950611B2, “Highly soluble Rebaudioside D” (PURECIRCLE SDN BHD, priority 2013, dated 2024).

Columns and labels:
[1] = room temperature, water; cited from earlier work
[2] = cited from earlier work
[3] = Solubility of Rebaudioside D (crystalline vs amorphous) in water; format: physicochemical; conditions: for water solubility: room temperature, g per 100 g solvent
Method: Hereinafter, unless specified otherwise the solubility of material is determined in RO (reverse osmosis) water at room temperature. […] The solution was maintained at 50° C. and dried using a YC-015 laboratory spray drier (Shanghai Pilotech Instrument & Equipment Co. Ltd., China) operating at 175° C. inlet and 100° C. outlet temperatures.

SMILES | Rate of dissolution in H2O at 25° C. (in words) [2] | Rate of dissolution in H2O at 25° C., amount dissolved in 5 minutes [2] | water solubility [3] | further results
C=C1C[C@@]23CC[C@H]4[C@@](C)(CCC[C@@]4(C)C(=O)O[C@@H]4O[C@H](CO)[C@@H](O)[C@H](O)[C@H]4O)[C@@H]2CC[C@]1(O[C@@H]1O[C@H](CO)[C@@H](O)[C@H](O[C@@H]2O[C@H](CO)[C@@H](O)[C@H](O)[C@H]2O)[C@H]1O[C@@H]1O[C@H](CO)[C@@H](O)[C@H](O)[C@H]1O)C3 [Rebaudioside A] | – | – | – | thermodynamic equilibrium solubility [1]: 0.8%
C=C1C[C@@]23CC[C@H]4[C@@](C)(CCC[C@@]4(C)C(=O)O[C@@H]4O[C@H](CO)[C@@H](O)[C@H](O)[C@H]4O)[C@@H]2CC[C@]1(O[C@@H]1O[C@H](CO)[C@@H](O)[C@H](O[C@@H]2O[C@H](CO)[C@@H](O)[C@H](O)[C@H]2O)[C@H]1O[C@@H]1O[C@H](CO)[C@@H](O)[C@H](O)[C@H]1O)C3 [Form 2, Rebaudioside A] | Intermediate | (<30% in 5 | – | –
C=C1C[C@@]23CC[C@H]4[C@@](C)(CCC[C@@]4(C)C(=O)O[C@@H]4O[C@H](CO)[C@@H](O)[C@H](O)[C@H]4O)[C@@H]2CC[C@]1(O[C@@H]1O[C@H](CO)[C@@H](O)[C@H](O[C@@H]2O[C@H](CO)[C@@H](O)[C@H](O)[C@H]2O)[C@H]1O[C@@H]1O[C@H](CO)[C@@H](O)[C@H](O)[C@H]1O)C3 [Form 4, Rebaudioside A] | High | (>35% in 5 | – | –
C=C1C[C@@]23CC[C@H]4[C@@](C)(CCC[C@@]4(C)C(=O)O[C@@H]4O[C@H](CO)[C@@H](O)[C@H](O)[C@H]4O)[C@@H]2CC[C@]1(O[C@@H]1O[C@H](CO)[C@@H](O)[C@H](O[C@@H]2O[C@H](CO)[C@@H](O)[C@H](O)[C@H]2O)[C@H]1O[C@@H]1O[C@H](CO)[C@@H](O)[C@H](O)[C@H]1O)C3 [Form 1, Rebaudioside A] | Very low | – | – | Rate of dissolution in H2O at 25° C., amount dissolved in 60 minutes ([2]; in 60 minutes): (<0.2% in 60
C=C1C[C@@]23CC[C@H]4[C@@](C)(CCC[C@@]4(C)C(=O)O[C@@H]4O[C@H](CO)[C@@H](O)[C@H](O)[C@H]4O)[C@@H]2CC[C@]1(O[C@@H]1O[C@H](CO)[C@@H](O)[C@H](O[C@@H]2O[C@H](CO)[C@@H](O)[C@H](O)[C@H]2O)[C@H]1O[C@@H]1O[C@H](CO)[C@@H](O)[C@H](O)[C@H]1O)C3 [Form 3, Rebaudioside A] | High | (>30% in 5 | – | –
C=C1C[C@@]23CC[C@H]4[C@@](C)(CCC[C@@]4(C)C(=O)O[C@@H]4O[C@H](CO)[C@@H](O)[C@H](O)[C@H]4O[C@@H]4O[C@H](CO)[C@@H](O)[C@H](O)[C@H]4O)[C@@H]2CC[C@]1(O[C@@H]1O[C@H](CO)[C@@H](O)[C@H](O[C@@H]2O[C@H](CO)[C@@H](O)[C@H](O)[C@H]2O)[C@H]1O[C@@H]1O[C@H](CO)[C@@H](O)[C@H](O)[C@H]1O)C3 [amorphous Reb D, Rebaudioside D] | – | – | 0.2% | –
C=C1C[C@@]23CC[C@H]4[C@@](C)(CCC[C@@]4(C)C(=O)O[C@@H]4O[C@H](CO)[C@@H](O)[C@H](O)[C@H]4O[C@@H]4O[C@H](CO)[C@@H](O)[C@H](O)[C@H]4O)[C@@H]2CC[C@]1(O[C@@H]1O[C@H](CO)[C@@H](O)[C@H](O[C@@H]2O[C@H](CO)[C@@H](O)[C@H](O)[C@H]2O)[C@H]1O[C@@H]1O[C@H](CO)[C@@H](O)[C@H](O)[C@H]1O)C3 [crystalline Rebaudioside D, Rebaudioside D] | – | – | 0.05% | Solubility, % (in water) 20° C. ([3]; water, 20° C.): 0.05%; Solubility, % (in water) 50° C.* ([3]; water, 50° C., solution crystallized after cooling to room temperature (20° C.)): 0.2%; Solubility, % (in water) 100° C.* ([3]; water, 100° C., solution crystallized after cooling to room temperature (20° C.)): 0.5%
C=C1C[C@@]23CC[C@H]4[C@@](C)(CCC[C@@]4(C)C(=O)O[C@@H]4O[C@H](CO)[C@@H](O)[C@H](O)[C@H]4O[C@@H]4O[C@H](CO)[C@@H](O)[C@H](O)[C@H]4O)[C@@H]2CC[C@]1(O[C@@H]1O[C@H](CO)[C@@H](O)[C@H](O[C@@H]2O[C@H](CO)[C@@H](O)[C@H](O)[C@H]2O)[C@H]1O[C@@H]1O[C@H](CO)[C@@H](O)[C@H](O)[C@H]1O)C3 [Rebaudioside D] | – | – | 0.05% | water solubility when heat is applied ([3]; heated, upon cooling to room temperature crystallizes back out): up to 0.5%
